Experiments:
Type in all cases: physicochemical
pH of 1 wt % in water = experiment: pH of 1 wt % in water
Experimental: Additionally the pH was measured as 1 wt % D,L-alanine diacetonitrile in water and this pH was compared to the pH of 1 wt % […].

[1] = Stability (hydrolysis) of D,L-alanine diacetonitrile in water, aqueous layers analyzed by NMR; details: demi-water, closed bottles, overnight at various temperatures
Experimental: (§1) The solubility of D,L-alanine diacetonitrile was determined at various temperatures to get a clear understanding of the solubility and stability of D,L-alanine diacetonitrile. The D,L-alanine diacetonitrile crystals obtained in Example 1 were added to demi-water and the samples in well-closed bottles were placed in ovens/refrigerators at various temperatures overnight.

[2] = Solubility of D,L-alanine diacetonitrile crystals in demi-water at various temperatures; details: overnight
Experimental: as §1

Molecule | pH (1% in water) (pH of 1 wt % in water) | Hydrolysis of D,L-alanine diacetonitrile in aqueous layer (NMR) [1] | Solubility, wt % D,L-alanine diacetonitrile ([2]; 0° C.) [wt %] | Solubility, wt % D,L-alanine diacetonitrile ([2]; 5° C.) [wt %] | Solubility, wt % D,L-alanine diacetonitrile ([2]; 20° C.) [wt %] | Solubility, wt % D,L-alanine diacetonitrile ([2]; 30° C.) [wt %] | Solubility, wt % D,L-alanine diacetonitrile ([2]; 40° C.) [wt %] | Solubility, wt % D,L-alanine diacetonitrile ([2]; 50° C.) [wt %]
D,L-alanine diacetonitrile | pH = 2.2 | no or very little hydrolysis took place | 6 | 7.9 | 40.7 | 75 | 82.5 | 95
CC(C(=O)[O-])N(CC#N)CC#N.[Na+] (racemic) [D,L-alanine diacetonitrile-Na, sodium salt of D,L-alanine diacetonitrile] | pH = 3.3. |  |  |  |  |  |  | 
